Format in all cases: cell-based
The subject of one test is MES-SA/DX5 cells. The experiment in a line: XTT cytotoxicity, MES-SA/DX5. Conditions: for effectiveness in subline overexpressing PgP: MES-SA/DX5 vs MES-SA; for IC50: MES-SA/DX5, uterine sarcoma, P-gp overexpression; for IC50 ratio between resistant and non-resistant cells: MES-SA/DX5 / MES-SA. On the procedure: (§1) The cytotoxic activity of the novel family was evaluated against various tumor cells, including myeloma cells, acute lymphoblastic leukemia cells, acute monocytic leukemia cells, chronic myelogenous leukemia cells, pancreatic cancer cells, breast cancer cells, uterine sarcoma cells, cervix adenocarcinoma cells, ovary cancer cells, melanoma cells, osteosarcoma cells, prostate cancer cells, lung cancer cells, neuroblastoma cells and colorectal adenocarcinoma cells by XTT assay.
In general terms: Formazan colour is commonly taken as a measure of viable cells.

For the next test, the system named is MCF7 cells. The experiment in a line: XTT cytotoxicity, MCF7. Conditions: MCF7, breast adenocarcinoma, non-resistant. The procedure:
as §1

In another test the test system is N6/ADR cells. Nature of the test: XTT cytotoxicity, N6/ADR. The following applies: for IC50 ratio between resistant and non-resistant cells: N6/ADR / NALM6; for IC50: N6/ADR, acute lymphoblastic leukemia, P-gp overexpression, read-out: IC50. On the procedure:
as §1
(§2) Most tubulin-binding anticancer drugs currently used in the clinic are substrates for Pgp effux pump. […] The inventors tested the viability of NALM6 acute lymphoblastic leukemia cell line (ALL) and its corresponding doxorubicin resistant N6/ADR cell line that overexpress Pgp glycoprotein and has cross-resistance to vincristine.

The next test relates to MCF7-VP cells. The experiment in a line: XTT cytotoxicity, MCF7-VP. Conditions: for IC50: MCF7-VP, breast adenocarcinoma, MRP overexpression; for IC50 ratio between resistant and non-resistant cells: MCF7-VP / MCF7. On the procedure: as §1
The test system of a further test is MM1.R cells. The experiment in a line: XTT cytotoxicity, MM1.R. Conditions: for IC50: MM1.R, multiple myeloma, dexamethasone resistant, read-out: IC50; for IC50 ratio between resistant and non-resistant cells: MM1.R / MM1.S. On the procedure: as §1
Another test concerns RPMI-DOX40 cells. The experiment in a line: XTT cytotoxicity, RPMI-DOX40. Conditions: for IC50: RPMI-DOX40, multiple myeloma, P-gp overexpression, read-out: IC50; for IC50 ratio between resistant and non-resistant cells: RPMI-DOX40 / RPMI 8226. The procedure: as §1
The subject of a further test is RPMI 8226 cells. The experiment in a line: XTT cytotoxicity, RPMI 8226. Conditions: RPMI 8226, multiple myeloma, non-resistant, read-out: IC50. On the procedure: as §1
A further test relates to NALM6 cells. The experiment in a line: XTT cytotoxicity, NALM6. Conditions: NALM6, acute lymphoblastic leukemia, non-resistant, read-out: IC50. The procedure:
as §1, §2

For test [1], the system named is colchicine binding site on tubulin protein. The experiment in a line: EBI competition assay, RPMI-8226 cells. Conditions: RPMI-8226 living cells.
In the next test the test system is MM1.S cells. The experiment in a line: XTT cytotoxicity, MM1.S. Conditions: multiple myeloma, non-resistant, read-out: IC50. The procedure: as §1
A further test relates to RPMI-LR5 cells. Nature of the test: XTT cytotoxicity, RPMI-LR5. The following applies: for IC50: RPMI-LR5, multiple myeloma, melphalan resistant, read-out: IC50; for IC50 ratio between resistant and non-resistant cells: RPMI-LR5 / RPMI 8226. On the procedure: as §1
Another test deals with RPMI-MR20 cells. The experiment in a line: XTT cytotoxicity, RPMI-MR20. The following applies: for IC50: RPMI-MR20, mitoxantrone resistant, read-out: IC50; for IC50 ratio between resistant and non-resistant cells: RPMI-MR20 / RPMI 8226. On the procedure: as §1
The next test concerns MES-SA cells. The experiment in a line: XTT cytotoxicity, MES-SA. The following applies: poorly differentiated uterine sarcoma, non-resistant. On the procedure: as §1
The test system of the next test is RPMI8226 cells. Nature of the test: Cell cycle distribution by flow cytometry. The following applies: 6 hours; IC50, IC50x2.5 and IC50x5 concentrations. On the procedure: Cell cycle arrest is a shared consequence of MTAs treatment. The effects of cell cycle distribution were determined in RPMI8226 cells treated for 6 and 18 hours with a range of concentrations of the molecules. The cells were stained with propidium iodide and cell cycle distribution was measured using a cytoFLEX flow cytometer.
Background: Flow cytometry measures light scatter and fluorescence of single cells or particles in a stream.

For another test, the system named is NCI-H69 cells. The experiment in a line: XTT cytotoxicity, NCI-H69. The following applies: NCI-H69, small cell lung carcinoma, non-resistant. On the procedure: as §1
In a further test the test system is A2780ADR cells. Nature of the test: XTT cytotoxicity, A2780ADR. Conditions: for IC50 ratio between resistant and non-resistant cells: A2780ADR / A2780; for IC50: A2780ADR, ovarian carcinoma, resistant. On the procedure:
as §1

The next test deals with NCI-H69 VCR/R cells. Nature of the test: XTT cytotoxicity, NCI-H69 VCR/R. Conditions: for IC50: NCI-H69 VCR/R, vincristine resistant; for IC50 ratio between resistant and non-resistant cells: NCI-H69 VCR/R / NCI-H69. On the procedure:
as §1

Another test relates to A2780 cells. The experiment in a line: XTT cytotoxicity, A2780. Conditions: A2780, ovarian carcinoma, non-resistant. On the procedure:
as §1

Read-outs that look alike come from different tables or passages of the source.

Consider `COc1cc2c(c(OC)c1OC)-c1ccc(OC)c(=O)cc1[C@@H](NC(C)=O)CC2` [Colchicine], for which, in the test with MES-SA/DX5 cells, the “effectiveness in subline overexpressing PgP” value is “less effective in the subline overexpressing PgP”.

By IC50 is commonly meant the concentration that gives 50% inhibition. As to `CCCCCOC(=O)c1[nH]c2c(c1C)C(=O)CC(c1ccco1)C2` (centres unmarked) [SMS001, reference compound], the IC50 in the test with MCF7 cells (Homo sapiens) was found to be 350 nM; in the test with N6/ADR cells, 37 nM; with MES-SA/DX5 cells (Homo sapiens) it was 49 nM; in the test on MCF7-VP cells (Homo sapiens) it was 469 nM; with MM1.R cells (MM.1R) it was 69 nM; with RPMI-DOX40 cells, 34 nM. The IC50 in the test with RPMI 8226 cells (Homo sapiens) was found to be 40 nM; in the test with NALM6 cells (Homo sapiens, NALM-6), 37 nM; with MM1.S cells (Homo sapiens), 63 nM; with RPMI-LR5 cells it was 29 nM; in the test on RPMI-MR20 cells, 35 nM; in the test on MES-SA cells (Homo sapiens), 203 nM. For the same compound, the “IC50 ratio between resistant and non-resistant cells” value in the test with N6/ADR cells came to 1.000; in the test on MES-SA/DX5 cells it was 0.241; in the test with MCF7-VP cells, 1.340; in the test with RPMI-DOX40 cells it was 0.850; in the test on RPMI-LR5 cells, 0.725; with RPMI-MR20 cells it was 0.875. The “prevention of covalent binding of EBI to the colchicine binding site” value (“prevention of covalent binding of EBI” below) in test [1] is “prevented the covalent binding of EBI to the colchicine binding site”.

`CCCCCOC(=O)c1[nH]c2c(c1C)C(=O)CN(c1ccccc1)C2` [SMS078, Pentyl 3-methyl-4-oxo-6-phenyl-4,5,6,7-tetrahydro-1H-pyrrolo[2,3-c]pyridine-2-carboxylate]: the “IC50 ratio between resistant and non-resistant cells” value in the test with N6/ADR cells was determined as 0.927; with RPMI-DOX40 cells, 2.329. Also, the IC50 is 165 nM in the test with N6/ADR cells; 489 nM in the test with RPMI-DOX40 cells; 210 nM in the test on RPMI 8226 cells (Homo sapiens); 178 nM with NALM6 cells (Homo sapiens, NALM-6).

In the case of `Cc1c(C(=O)OCCCCN)[nH]c2c1C(=O)CC(c1ncco1)C2.Cl.Cl` (centres unmarked) [SMS088, 4-ami0butyl-3-methyl-6-(oxazol-2-yl)-4-oxo-4,5,6,7-tetrahydro-1H-indole-2-carboxylate dihydrogen chloride], the IC50 in the test with MCF7 cells is 5840 nM; in the test with N6/ADR cells it was 62 nM; with MES-SA/DX5 cells, 5260 nM; with MCF7-VP cells, 7300 nM; with MM1.R cells, 1020 nM; in the test with RPMI-DOX40 cells, 1350 nM. For the same compound, the IC50 was 1610 nM with RPMI 8226 cells; 56 nM with NALM6 cells; 1100 nM in the test on MM1.S cells; 1430 nM in the test on RPMI-LR5 cells; above 1800 nM in the test on RPMI-MR20 cells; 2200 nM in the test on MES-SA cells. Besides, the “IC50 ratio between resistant and non-resistant cells” value with N6/ADR cells stood at 1.107; in the test on MES-SA/DX5 cells it was 2.391; with MCF7-VP cells, 1.251; with MM1.R cells, 0.934; with RPMI-DOX40 cells it was 0.839; with RPMI-LR5 cells, 0.885. Moreover, the “IC50 ratio between resistant and non-resistant cells” value in the test with RPMI-MR20 cells is recorded as above 1.116. Also, in the test with RPMI8226 cells, the cell cycle arrest result was “cell cycle arrest in G2M phase”. In addition, the “prevention of covalent binding of EBI” value in test [1] is “prevented the covalent binding of EBI to the colchicine binding site”.

Regarding `CCCCCOC(=O)c1[nH]c2c(c1C)C(=O)CC(c1nccs1)C2` (centres unmarked) [SMS213, pentyl-3-methyl-4-oxo-6-(thiazol-2-yl)-4,5,6,7-tetrahydro-1H-indole-2-carboxylate], the concentration for half-maximal inhibition (IC50) with MCF7 cells (Homo sapiens) was determined as 243 nM; in the test with N6/ADR cells, 109 nM; in the test with MES-SA/DX5 cells (Homo sapiens) it was 139 nM; in the test with MCF7-VP cells (Homo sapiens) it was 513 nM; with MM1.R cells (MM.1R), 147 nM; with RPMI-DOX40 cells, 68 nM. Further, the IC50 was determined as 92 nM in the test with RPMI 8226 cells (Homo sapiens); 107 nM in the test with NALM6 cells (Homo sapiens, NALM-6); 124 nM in the test with MM1.S cells (Homo sapiens); 60 nM in the test on RPMI-LR5 cells; 79 nM with RPMI-MR20 cells; 120 nM in the test on MES-SA cells (Homo sapiens). Also, the “IC50 ratio between resistant and non-resistant cells” value in the test on N6/ADR cells is 1.019; in the test on MES-SA/DX5 cells it was 1.158; in the test on MCF7-VP cells, 2.114; with MM1.R cells, 1.185; in the test with RPMI-DOX40 cells, 0.739; in the test with RPMI-LR5 cells it was 0.652. In the test on RPMI-MR20 cells, the “IC50 ratio between resistant and non-resistant cells” value was found to be 0.859.

As to `CCCOC(=O)c1[nH]c2c(c1C)C(O)CC(c1ncco1)C2` (centres unmarked) [SMS291, propyl-4-hydroxy-3-methyl-6-(oxazol-2-yl)-4,5,6,7-tetrahydro-1H-indole-2-carboxylate], the figures for the “IC50 ratio between resistant and non-resistant cells” value in the test with N6/ADR cells and in the test on RPMI-DOX40 cells were 0.686 and 0.543, respectively. The IC50 in the test on N6/ADR cells is 350 nM; in the test on RPMI-DOX40 cells, 531 nM; with RPMI 8226 cells (Homo sapiens), 978 nM; in the test with NALM6 cells (Homo sapiens, NALM-6), 510 nM. For the same compound, in test [1], the “prevention of covalent binding of EBI” value is given as “did not prevent the covalent binding of EBI to the colchicine binding site”.

Take `CCCOC(=O)c1[nH]c2c(c1C)C(=O)CN(c1ncco1)C2` [SMS294, Propyl 3-methyl-6-(oxazol-2-yl)-4-oxo-4,5,6,7-tetrahydro-1H-pyrrolo[2,3-c]pyridine-2-carboxylate]: the “IC50 ratio between resistant and non-resistant cells” value came to 2.138 with N6/ADR cells and 1.598 in the test on RPMI-DOX40 cells. Moreover, the 50% inhibitory concentration (IC50) in the test on N6/ADR cells is 1940 nM; in the test on RPMI-DOX40 cells, 1060 nM; in the test on RPMI 8226 cells (Homo sapiens) it was 666 nM; in the test on NALM6 cells (Homo sapiens, NALM-6) it was 907 nM.

Regarding `CCC1=C[C@@H]2CN(C1)Cc1c([nH]c3ccccc13)[C@@](C(=O)OC)(c1cc3c(cc1OC)N(C)[C@H]1[C@@](O)(C(=O)OC)[C@H](OC(C)=O)[C@]4(CC)C=CCN5CC[C@]31[C@@H]54)C2` [Vinorelbine], the IC50 was 22 nM in the test with NCI-H69 cells (Homo sapiens); 22 nM with MCF7 cells (Homo sapiens); above 1000 nM with MES-SA/DX5 cells (Homo sapiens); 28 nM in the test with MCF7-VP cells (Homo sapiens); 2700 nM in the test on A2780ADR cells (A2780 ADR); above 1000 nM with NCI-H69 VCR/R cells (Homo sapiens). Moreover, the half-inhibitory concentration (IC50) in the test with A2780 cells (Homo sapiens) stood at 9 nM; in the test on MES-SA cells (Homo sapiens), 64 nM. For the same compound, the “IC50 ratio between resistant and non-resistant cells” value in the test on MES-SA/DX5 cells was above 15.625; with MCF7-VP cells, 1.273; in the test on A2780ADR cells, 300.000; in the test on NCI-H69 VCR/R cells, above 45.454. For the same compound, the “effectiveness in subline overexpressing PgP” value in the test with MES-SA/DX5 cells is recorded as “less effective in the subline overexpressing PgP”.

For Epothilone, the IC50 in the test with NCI-H69 cells is 88 nM; in the test with MCF7 cells, 220 nM; in the test with MES-SA/DX5 cells, 187 nM; in the test on MCF7-VP cells it was 456 nM; in the test on A2780ADR cells it was above 1000 nM; in the test on NCI-H69 VCR/R cells, above 1000 nM. Further, the IC50 came out at 2.7 nM in the test on A2780 cells and 52 nM with MES-SA cells. Besides, the “IC50 ratio between resistant and non-resistant cells” value with MES-SA/DX5 cells was 3.613; in the test with MCF7-VP cells, 2.073; in the test with A2780ADR cells it was above 370.370; with NCI-H69 VCR/R cells, above 11.364.

These data come from US20260226037A1, “MICROTUBULE TARGETING AGENTS” (ARIEL SCIENTIFIC INNOVATIONS LTD., priority 2022, published 2026).
